The values that follow come from US11111251B2, “Positive allosteric modulators of the muscarinic acetylcholine receptor M1” (Vanderbilt University, priority 2016, dated 2021).

The target in this assay is T1, human mAChR M1 (Homo sapiens, UniProt P11229).
T1 sequence (P11229 1-460): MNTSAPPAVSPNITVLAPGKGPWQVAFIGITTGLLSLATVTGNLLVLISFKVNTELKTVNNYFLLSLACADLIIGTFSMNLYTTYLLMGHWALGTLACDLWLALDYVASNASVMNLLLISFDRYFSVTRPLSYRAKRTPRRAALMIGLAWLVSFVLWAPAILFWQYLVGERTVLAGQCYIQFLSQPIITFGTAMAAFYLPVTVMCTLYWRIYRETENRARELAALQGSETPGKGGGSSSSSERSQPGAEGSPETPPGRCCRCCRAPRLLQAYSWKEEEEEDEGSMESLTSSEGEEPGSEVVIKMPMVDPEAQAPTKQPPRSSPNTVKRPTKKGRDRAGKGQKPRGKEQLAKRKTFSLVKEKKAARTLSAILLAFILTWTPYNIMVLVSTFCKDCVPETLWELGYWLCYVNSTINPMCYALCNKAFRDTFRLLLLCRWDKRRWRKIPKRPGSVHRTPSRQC
As to the kind of experiment: mAChR M1 cell-based functional assay: calcium mobilization, positive allosteric modulator mode (increase in EC20 acetylcholine response). To be noted: for Emax: read-out: Human M1 Emax (%). Put shortly: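 Calcium-flux assay in CHO-K1 cells stably expressing human M1, loaded with Fluo-4 AM (50 min, 37 °C) and read at 1 Hz. Compound (11-point, 1:3 series) was added at 4 s, EC20 acetylcholine at 144 s and EC80 at 230 s. PAM activity is the concentration-dependent rise in the EC20 response, fitted with a four-parameter logistic.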

The mark [1] stands for this setting: Table 2, human M1, read-out: Human M1 EC50.
Where [2] appears, read: Table 1, mAChR M1 cell-based functional assay, PAM mode, species not given, read-out: EC50.

Where two headings read alike, the source gives them in different places.

By EC50 is commonly meant the concentration giving half of the maximal effect. A word on the Emax: it is the size of the effect at its maximum, as opposed to the concentration needed.

For `Cn1ccc(-c2ccc(Cc3cc(C(=O)NCC4CCOC4)nc4ccn(C)c34)cn2)n1` (centres unmarked) [Compound 509, 1-methyl-7-[[6-(1-methylpyrazol-3-yl)-3-pyridyl]methyl]-N-(tetrahydrofuran-3-ylmethyl)pyrrolo[3,2-b]pyridine-5-carboxamide;], the EC50 under setting [1] was 4.32 µM. For the setting “Table 2, human M1”, the Emax was 75.4%.

`O=C(N[C@H]1CCOC1)c1cc(Cc2ccc(-c3cncs3)cc2)c2sccc2n1` [Compound 399, N-[(3S)-tetrahydrofuran-3-yl]-7-[(4-thiazol-5-ylphenyl)methyl]thieno[3,2-b]pyridine-5-carboxamide]: the EC50 under setting [1] stood at 4.31 µM. Besides, the Emax (Table 2, human M1) came out at 45.1%.

In the case of `O=C(NC1COC1)c1cc(Cc2ccc(-c3nccs3)cc2)c2sccc2n1` [Compound 365, N-(oxetan-3-yl)-7-[(4-thiazol-2-ylphenyl)methyl]thieno[3,2-b]pyridine-5-carboxamide], the EC50 under setting [1] is 1.35 µM. For the same molecule, the Emax (Table 2, human M1) was determined as 57.9%.

Consider `Cn1cc2c(-c3cc(F)c(Cc4cc(C(=O)N[C@H]5CCCC[C@@H]5O)nc5ccsc45)c(F)c3)cccc2n1` [Compound 41, 7-[[2,6-difluoro-4-(2-methylindazol-4-yl)phenyl]methyl]-N-[(1S,2S)-2-hydroxycyclohexyl]thieno[3,2-b]pyridine-5-carboxamide], for which, under setting [2], the EC50 was determined as 3.64 µM.

As to `Cn1ccc(-c2ccc(Cc3cc(C(=O)NC4CCOCC4)nc4ccn(C)c34)cn2)n1` [Compound 503, 1-methyl-7-[[6-(1-methylpyrazol-3-yl)-3-pyridyl]methyl]-N-tetrahydropyran-4-yl-pyrrolop,2-blpyridine-5-carboxamide;], the EC50 under setting [1] was found to be 1.56 µM. Besides, the Emax (Table 2, human M1) worked out at 66.6%.

As to `Cc1ccc(Oc2cc(C(=O)NC(C)C(C)(C)CO)nc3ccsc23)cn1` (centres unmarked) [Compound 34, N-(3-hydroxy-1,2,2-trimethyl-propyl)-7-[(6-methyl-3-pyridyl)oxy]thieno[3,2-b]pyridine-5-carboxamide], the EC50 under setting [2] is over 10 µM.

Take `Cc1nc(-c2ccc(Cc3cc(C(=O)NC4CCN(C)CC4)nc4ccsc34)cc2)cs1` [Compound 187, N-(1-methyl-4-piperidyl)-7-[[4-(2-methylthiazol-4-yl)phenyl]methyl]thieno[3,2-b]pyridine-5-carboxamide]: under setting [1], the EC50 stood at 3.2 µM. The Emax (Table 2, human M1) was 72.1%.

In the case of `Cn1cc(-c2ccc(Cc3cc(C(=O)NC4CCOCC4(C)C)nc4ccsc34)cc2)cn1` (centres unmarked) [Compound 379, N-(3,3-dimethyltetrahydropyran-4-yl)-7-[[4-(1-methylpyrazol-4-yl)phenyl]methyl]thieno[3,2-b]pyridine-5-carboxamide], the EC50 under setting [1] was 0.15 µM. For the same molecule, the Emax (Table 2, human M1) is 53.9%.

For `Cn1ncc2nc(C(=O)NC[C@H]3CCCO3)cc(Cc3ccc(-c4cscn4)cc3)c21` [Compound 495, 1-methyl-N-[[(2R)-tetrahydrofuran-2-yl]methyl]-7-[(4-thiazol-4-ylphenyl)methyl]-pyrazolo[4,3-b]pyridine-5-carboxamide], the EC50 under setting [1] worked out at 3.91 µM. Moreover, the Emax (Table 2, human M1) came out at 65.1%.

`Cc1ccc(Cc2cc(C(=O)N[C@H]3COCC[C@@H]3O)nc3ccsc23)cn1` [Compound 46, N-[(3S,4S)-4-hydroxytetrahydropyran-3-yl]-7-[(6-methyl-3-pyridyl)methyl]thieno[3,2-b]pyridine-5-carboxamide]: the EC50 under setting [2] is 0.029 µM.

As to `O=C(NC1CCOCC1)c1cc(C(F)c2ccc(-c3cscn3)cc2)c2sccc2n1` (centres unmarked) [Compound 332, 7-[fluoro-(4-thiazol-4-ylphenyl)methyl]-N-tetrahydropyran-4-yl-thieno[3,2-b]pyridine-5-carboxamide], the EC50 under setting [1] is 0.0569 µM. Also, for the setting “Table 2, human M1”, the Emax was found to be 69%.

Regarding `Cc1nc(-c2ccc(Cc3cc(C(=O)NC4CCOCC4)nc4c(C)csc34)cc2)co1` [Compound 329, 3-methyl-7-[[4-(2-methyloxazol-4-yl)phenyl]methyl]-N-tetrahydropyran-4-yl-thieno[3,2-b]pyridine-5-carboxamide], the EC50 under setting [1] is 0.458 µM. Further, for the setting “Table 2, human M1”, the Emax worked out at 73.5%.

`Cc1csc2c(Cc3ccc(-n4cccn4)cc3)cc(C(=O)NC3COC3)nc12` [Compound 319, 3-methyl-N-(oxetan-3-yl)-7-[(4-pyrazol-1-ylphenyl)methyl]thieno[3,2-b]pyridine-5-carboxamide]: the EC50 under setting [1] was found to be 1.81 µM. Further, the Emax (Table 2, human M1) worked out at 56.1%.

Turning to `Cn1ccc(-c2ccc(Cc3cc(C(=O)NC4CCOC(C)(C)C4)nc4ccsc34)cc2)n1` (centres unmarked) [Compound 325, N-(2,2-dimethyltetrahydropyran-4-yl)-7-[[4-(1-methylpyrazol-3-yl)phenyl]methyl]thieno[3,2-b]pyridine-5-carboxamide], the EC50 under setting [1] was 0.907 µM. Under “Table 2, human M1”, the Emax worked out at 83.3%.

For the molecule `O=C(NC1CCN2CCCC12)c1cc(Cc2ccc(-c3cscn3)cc2)c2sccc2n1` (centres unmarked) [Compound 220, N-(hexahydro-1H-pyrrolizin-1-yl)-7-[(4-thiazol-4-ylphenyl)methyl]thieno[3,2-b]pyridine-5-carboxamide], the EC50 under setting [1] is 1.28 µM. Further, the Emax (Table 2, human M1) worked out at 80.6%.

For the molecule `Cc1nc(-c2ccc(Cc3cc(C(=O)NC4CCOCC4)nc4ccsc34)cc2)cs1` [Compound 191, 7-[[4-(2-methylthiazol-4-yl)phenyl]methyl]-N-tetrahydropyran-4-yl-thieno[3,2-b]pyridine-5-carboxamide], the EC50 under setting [1] amounted to 0.247 µM. For the same molecule, the Emax (Table 2, human M1) worked out at 86.9%.

Regarding `Cn1cc(-c2ccc(Cc3cc(C(=O)N[C@@H]4CCOC4)nc4ccsc34)cc2)nn1` [Compound 150, 7-[[4-(1-methyltriazol-4-yl)phenyl]methyl]-N-[(3R)-tetrahydrofuran-3-yl]thieno[3,2-b]pyridine-5-carboxamide], the EC50 under setting [1] worked out at 0.722 µM. The Emax (Table 2, human M1) was 88.5%.

As for `O=C(c1cc(Cc2ccc(-n3cccn3)cc2)c2sccc2n1)N1CCC[C@@H](O)C1` [Compound 81, [(3R)-3-hydroxy-1-piperidyl]-[7-[(4-pyrazol-1-ylphenyl)methyl]thieno[3,2-b]pyridin-5-yl]methanone], under setting [1], the EC50 is over 10 µM. The Emax (Table 2, human M1) worked out at 33%.

`C[C@H]1COCC[C@@H]1NC(=O)c1cc(Cc2ccc(-c3cncs3)cc2)c2sccc2n1` [Compound 393, N-[(3R,4S)-3-methyltetrahydropyran-4-yl]-7-[(4-thiazol-5-ylphenyl)methyl]thieno[3,2-b]pyridine-5-carboxamide]: under setting [1], the EC50 was found to be 1.34 µM. Where the note is “Table 2, human M1”, the Emax was determined as 68.7%.

In the case of `Cc1nn(C)cc1-c1ccc(Cc2cc(C(=O)N[C@H]3CCCC[C@@H]3O)nc3ccsc23)cc1` [Compound 250], the EC50 under setting [1] is over 10 µM. Also, where the note is “Table 2, human M1”, the Emax came to 48.1%.

For the molecule `CC1(C)CC(NC(=O)c2ccc(Cc3cc(C(=O)NC4CCOC(C)(C)C4)nc4ccsc34)cc2)CCO1` (centres unmarked) [Compound 409, N-(2,2-dimethyltetrahydropyran-4-yl)-7-[[4-[(2,2-dimethyltetrahydropyran-4-yl)carbamoyl]phenyl]methyl]thieno[3,2-b]pyridine-5-carboxamide], the EC50 under setting [1] is 0.725 µM. In addition, the Emax (Table 2, human M1) stood at 68.8%.

As to `Cc1csc2c(Cc3ccc(-n4cccn4)cc3)cc(C(=O)NC[C@@H]3CCCO3)nc12` [Compound 323, 3-methyl-7-[(4-pyrazol-1-ylphenyl)methyl]-N-[[(2S)-tetrahydrofuran-2-yl]methyl]thieno[3,2-b]pyridine-5-carboxamide], under setting [1], the EC50 is 0.689 µM. Also, for the setting “Table 2, human M1”, the maximal response (Emax) came to 76.8%.
